The term pIC50 denotes −log10 of the IC50, conventionally taken in molar units.

The text below walks through data of ChEMBL document CHEMBL2390877, “Structural requirements for inhibitory effects of bisphenols on the activity of the sarco/endoplasmic reticulum calcium ATPase” (Bioorg Med Chem, 2013).

pIC50: −log10 of the molar value. Activity calls are given as the source filed them. No cut-off for these calls is given here.

One data set is filed under the species Homo sapiens. The experiment in a line: Inhibition of sarco/endoplasmic reticulum calcium ATPase in human GM08333 cells assessed as inhibition of calcium ion uptake at 50 uM measured for 1 min by Fura-2AM staining assay. The data set is classed as cell-based.
Data set [1] in a line: Inhibition of rabbit skeletal muscle sarco/endoplasmic reticulum calcium ATPase assessed as inhibition of ATP hydrolysis by spectrophotometric analysis. On the set-up: species or system Oryctolagus cuniculus. The settings on record: for pIC50: read-out: IC50.
Another data set has as its system Serum. Nature of the data set: Drug uptake in human serum. The class given is ADME, cell-free.

As to `CC(C)(c1cc(Cl)c(O)c(Cl)c1)c1cc(Cl)c(O)c(Cl)c1`, the inhibition result in the data set listed under Homo sapiens was “Active”. For the same molecule, the negative logarithm of the IC50 (pIC50) in data set [1] was 5.26. On to `CC(C)(c1cc(N)c(O)c(N)c1)c1cc(N)c(O)c(N)c1`, for which, in data set [1], the IC50 entry is “Not Active”. Regarding `Oc1ccc(C(c2ccc(O)cc2)(C(F)(F)F)C(F)(F)F)cc1`, the IC50 entry in data set [1] was “Not Active”. For the molecule `Cc1cc(C(C)(C)c2ccc(O)c(C)c2)ccc1O`, the pIC50 in data set [1] was 4.62.

With `Cc1ccc(O)c(Cc2cc(C)ccc2O)c1`, the negative logarithm of the IC50 (pIC50) in data set [1] is 3.52.

On to `Cc1cc(C(C)(C)c2cc(C)c(O)c(C)c2)cc(C)c1O`, for which the negative logarithm of the IC50 (pIC50) in data set [1] is 5.59. Consider `Oc1ccc(Cc2ccc(O)cc2)cc1`, for which the IC50 result in data set [1] is “Not Active”. For `Nc1ccc(C(c2ccc(N)cc2)(C(F)(F)F)C(F)(F)F)cc1`, the IC50 result in data set [1] is recorded as “Not Active”. Regarding `CC(C)(c1ccc(O)c(C2CCCCC2)c1)c1ccc(O)c(C2CCCCC2)c1`, the inhibition entry in the data set filed under Homo sapiens was “Active”. Also, the pIC50 in data set [1] was 4.03. In the case of `CC(C)(c1ccc(O)cc1)c1ccc(O)cc1` [BISPHENOL A], the negative logarithm of the IC50 (pIC50) in data set [1] was 3.85.

On to `CC(C)c1cc(C(C)(C)c2ccc(O)c(C(C)C)c2)ccc1O`, for which the pIC50 in data set [1] is 5.47.

In the case of `C=CCc1cc(C(C)(C)c2ccc(O)c(CC=C)c2)ccc1O`, in data set [1], the pIC50 was 5.66. `CC(C)(c1cc(Br)c(O)c(Br)c1)c1cc(Br)c(O)c(Br)c1` gave a Drug uptake in the data set on Serum of 0.3 µM. Also, in the data set listed under Homo sapiens, the inhibition result is “Active”. In addition, the negative logarithm of the IC50 (pIC50) in data set [1] was 5.33. Consider `Oc1ccc(C2(c3ccc(O)cc3)CCCCC2)cc1`, for which the pIC50 in data set [1] was 4.57. As to `Oc1c(Cl)cc(Cl)cc1Cc1cc(Cl)cc(Cl)c1O`, the inhibition result in the data set filed under Homo sapiens was “Active”. Also, in data set [1], the pIC50 was 4.51. On to `Oc1c(F)cc(C(c2cc(F)c(O)c(F)c2)(C(F)(F)F)C(F)(F)F)cc1F`, for which the pIC50 in data set [1] was 5.55. For the molecule `CC(C)(c1cc(Br)c(OCC2CO2)c(Br)c1)c1cc(Br)c(OCC2CO2)c(Br)c1` (stereo not drawn), in data set [1], the IC50 entry is reported as “Not Active”.

As for `Nc1ccc(C2(c3ccc(N)cc3)CCCCC2)cc1`, in data set [1], the IC50 entry was “Not Active”. As for `CC(c1ccc(O)cc1)c1ccc(O)cc1`, in data set [1], the pIC50 was 4.05. In the case of `Nc1cc(C(c2ccc(O)c(N)c2)(C(F)(F)F)C(F)(F)F)ccc1O`, in data set [1], the IC50 result is listed as “Not Active”.

For `CC(C)(c1cc(Br)c(OCCO)c(Br)c1)c1cc(Br)c(OCCO)c(Br)c1`, the IC50 entry in data set [1] is on record as “Not Active”.

As to `CC(C)(C)c1cc(Cc2cc(C(C)(C)C)c(O)c(C(C)(C)C)c2)cc(C(C)(C)C)c1O`, the negative-log IC50 (pIC50) in data set [1] is 4.80. For `CC(C)(c1ccc(O)c(-c2ccccc2)c1)c1ccc(O)c(-c2ccccc2)c1`, the inhibition result in the data set filed under Homo sapiens was “Active”. The negative-log IC50 (pIC50) in data set [1] is 4.04. Take `CC(CCC(=O)O)(c1cc(Cl)c(O)c(Cl)c1)c1cc(Cl)c(O)c(Cl)c1`: the negative-log IC50 (pIC50) in data set [1] is 4.60.

As to `Oc1c(Cl)cc(Cl)c(Cl)c1Cc1c(O)c(Cl)cc(Cl)c1Cl` [HEXACHLOROPHENE], the inhibition result in the data set listed under Homo sapiens was “Active”. For the same molecule, the pIC50 in data set [1] was 5.40. With `O=C(c1ccc(O)cc1)c1ccc(O)cc1`, in data set [1], the pIC50 is 3.70.
